{"source": "patent US20140121273A1", "about": "“METHOD FOR TREATMENT OF MAGNESIUM AND POTASSIUM DEFICIENCIES” (priority 2005, published 2014)", "key": {"[1]": {"settings": "oral magnesium salts currently used to treat magnesium deficiencies; cited from earlier work"}, "[2]": {"settings": "cited from earlier work"}, "[3]": {"test_system": "people taking dofetilide or sotalol therapy", "test": "12-lead electrocardiogram intervals, randomized, double blind, placebo-controlled study of oral magnesium L-lactate", "type": "in vivo, human", "settings": "for QTc Interval 3 Hour / QTc Interval 51 Hour / QTc Baseline: Bazett's formula; for QTc interval reduction: all magnesium-treated patients on sotalol or dofetilide; for QT interval reduction: magnesium therapy", "procedure": "(§1) A randomized, double blind, placebo-controlled study was performed at Hartford Hospital. People taking dofetilide or sotalol therapy for at least 5 half-lives were eligible for inclusion. […] After enrollment, people who discontinued their sotalol or dofetilide or altered their dosage of these drugs were excluded as well. Thirty-four participants were enrolled in the study. Three were subsequently excluded because the antiarrhythmics they were using were discontinued or the dose of the antiarrhythmics changed during the study. Given the known baseline differences in QTc intervals among men and women, each gender was randomized separately using stratified allocation. Patients completing the study (n=30) were well matched for baseline characteristics, which are reflected in Table 1. Intracellular concentrations of essential elements were available for 19 subjects. Overall 63.2% of patients (regardless of experimental group) had baseline intracellular magnesium concentrations below the normal reference range of 33.9-41.9 mEq/IU with an average level of 32.6±2.2 mEq/IU. All of the other baseline intracellular elements evaluated (phosphorus, chloride, calcium, potassium, and sodium) were within the reference range although the phosphorus was at the top of the range (average=16.7±2.8 mEq/IU with reference range of 14.2-17.0 mEq/IU).\n(§2) Participants received three tablets of magnesium L-lactate (Mag-Tab SR®; Niche Pharmaceuticals; Roanoke, Tex.) or matching placebo twice daily (504 mg of elemental magnesium daily) for 48 hours (i.e. t=0, 12 h, 24 h, 36 h, and 48 h). A 12-lead electrocardiogram (ECG) was recorded at 25 mm/sec at rest prior to initiation of treatment (i.e. baseline) and at 3 and 51 hours after the first dose of magnesium (i.e. t=3 h and t=51 h) for each participant. A single blinded investigator read all ECGs using a precision ruler of 0.5 mm scale (Schlaedler-Quinzel, Inc. Parsippany, N.J.).\nQT intervals were measured from the onset of the Q wave (or R/S wave if there was no Q wave) to the end of the T wave where it merges with the isoelectric baseline. The beginning and end of the QRS complex were determined by visual inspection, whereas the end of the T-wave was obtained by extrapolating the descending slope of the T-wave to the isoelectric baseline. When au wave interrupts the down sloping of the T-wave, the visible portion of the T wave was extrapolated to the T-P baseline to define the end of the T-wave. The R-R interval was measured from the peak of one R wave to the peak of an adjacent R wave. The QTc interval was corrected for heart rate using Bazett's formula [QTc=QT/(RR)^1/2].\n(§3) Continuous data was expressed by a mean±SD. A p value less than 0.05 was considered statistically significant. The primary analysis was the intergroup comparisons of the change in QTc interval from baseline at 3 hours and 51 hours using Bazett's formula. Evaluations of the QRS, QT, and RR intervals were compared between groups at each time period as well. Mann-Whitney tests were used for all statistical analyses of continuous ECG data. Intracellular element intragroup comparisons were performed with a paired t-test. Chi^2 or Fischer's Exact tests were used for categorical comparisons. Statistical analysis was performed using SPSS version 5."}, "[4]": {"test": "Intracellular elemental concentrations in sublingual buccal smears (EXAtest, energy-dispersive X-ray analysis), same study", "type": "in vivo, human", "settings": "for Intracellular magnesium concentration, Baseline: before study therapy; for Intracellular magnesium concentration, Baseline / Intracellular magnesium concentration, Post-Dosing: buccal cells, magnesium group n = 10, normal reference range 33.9-41.9, mean ± SD; for Intracellular magnesium concentration, Post-Dosing: following the third dose", "procedure": "as §1, §2\nSublingual buccal smears were obtained from a subgroup of participants prior to initiation of study therapy and following the third dose of magnesium using EXAtest™ kits (Intracellular Diagnostics, Inc.; Foster City, Calif.). Samples were analyzed by energy-dispersive X-ray Analysis for intracellular concentrations of magnesium, phosphorus, chloride, calcium, potassium, and sodium. The use of buccal cell smears for intracellular magnesium was performed because it is noninvasive, reproducible, and correlates well (r=0.68, p<0.002) with atrial cell intracellular magnesium.\nas §3"}, "[5]": {"test": "Adverse events in the placebo-controlled study", "type": "in vivo, human", "settings": "among the 34 patients in the study; one withdrew (diarrhea 30 minutes after dosing)", "procedure": "as §1, with “Patients completing the study (n=30) were well matched for baseline characteristics, which are reflected in Table 1. Intracellular concentrations of essential elements were available for 19 subjects. Overall 63.2% of patients (regardless of experimental group) had baseline intracellular magnesium concentrations below the normal reference range of 33.9-41.9 mEq/IU with an average level of 32.6±2.2 mEq/IU.” left out\nas §2, with “A single blinded investigator read all ECGs using a precision ruler of 0.5 mm scale (Schlaedler-Quinzel, Inc. Parsippany, N.J.).” left out"}, "[6]": {"test_system": "patients with atrial fibrillation", "settings": "oral, two 6-month studies; cited from earlier work"}, "[7]": {"settings": "3 hours after first dose, 504 mg elemental magnesium daily, oral, n = 14, mean ± SD"}, "[8]": {"settings": "51 hours after first dose, 504 mg elemental magnesium daily for 48 hours, oral, n = 14, mean ± SD"}, "[9]": {"settings": "baseline, before first dose, magnesium group n = 14, on sotalol or dofetilide, mean ± SD"}}, "note": "Like-named read-outs stand apart in the source and are kept apart here."}
{"compound": "[O]=[Mg]", "note": "[magnesium oxide]", "values": [{"measurement": "bioavailability", "setting": "[1]", "result": "about 2%"}]}
{"compound": "O=S(=O)([O-])[O-].[Mg+2]", "note": "[magnesium sulfate]", "values": [{"measurement": "conversion rate", "setting": "[2]; trial of intravenous magnesium sulfate versus diltiazem, p=0.03", "result": 57, "unit": "%"}, {"measurement": "conversion rate", "setting": "[2]; trial of intravenous magnesium sulfate versus verapamil, p=0.01", "result": 58, "unit": "%"}]}
{"compound": "C[C@H](O)C(=O)[O-].C[C@H](O)C(=O)[O-].[Mg+2]", "note": "[magnesium L-lactate]", "values": [{"measurement": "QT Interval 3 Hour", "setting": "[3]; [7]", "result": "115300 ± 11100", "unit": "µM·h"}, {"measurement": "RR Interval 3 Hour", "setting": "[3]; [7]", "result": "230400 ± 30860", "unit": "µM·h"}, {"measurement": "QTc Interval 3 Hour", "setting": "[3]; [7]", "result": "121100 ± 17700", "unit": "µM·h"}, {"measurement": "QTc Interval 3 Hour", "setting": "[3]; 3 hours after first dose, 504 mg elemental magnesium daily, oral, n = 14, mean ± SD, listed as Magnesium", "result": "121100 ± 17700", "unit": "µM·h"}, {"measurement": "QRS Interval 3 Hour", "setting": "[3]; 3 hours after first dose, three tablets twice daily (504 mg elemental magnesium daily), oral, n = 14, mean ± SD", "result": "39890 ± 11600", "unit": "µM·h"}, {"measurement": "QTc interval reduction", "setting": "[3]; 3 hours post-dosing", "result": 37, "unit": "ms"}, {"measurement": "QTc interval reduction from baseline", "setting": "[3]; 3 hours, group receiving diuretics, mean ± SD", "result": "51.1 ± 42", "unit": "ms"}, {"measurement": "QT interval reduction", "setting": "[3]; 3 hours", "result": "isms"}, {"measurement": "QTc interval reduction from baseline", "setting": "[3]; 3 hours, no diuretic group, mean ± SD", "result": "25.5 ± 27.9", "unit": "ms"}, {"measurement": "QT Interval 51 Hour", "setting": "[3]; [8]", "result": "115800 ± 12400", "unit": "µM·h"}, {"measurement": "RR Interval 51 Hour", "setting": "[3]; [8]", "result": "241200 ± 32670", "unit": "µM·h"}, {"measurement": "QTc Interval 51 Hour", "setting": "[3]; [8]", "result": "124800 ± 14300", "unit": "µM·h"}, {"measurement": "QTc Interval 51 Hour", "setting": "[3]; 51 hours after first dose, 504 mg elemental magnesium daily for 48 hours, oral, n = 14, mean ± SD, listed as Magnesium", "result": "124800 ± 14300", "unit": "µM·h"}, {"measurement": "QRS Interval 51 Hour", "setting": "[3]; 51 hours after first dose, three tablets twice daily for 48 hours (504 mg elemental magnesium daily), oral, n = 14, mean ± SD", "result": "36190 ± 12200", "unit": "µM·h"}, {"measurement": "QTc interval reduction", "setting": "[3]; 51 hours", "result": 25, "unit": "ms"}, {"measurement": "QTc interval reduction from baseline", "setting": "[3]; 51 hours, group receiving diuretics, mean ± SD", "result": "24.7 ± 24.3", "unit": "ms"}, {"measurement": "QT interval reduction", "setting": "[3]; 51 hours", "result": 14, "unit": "ms"}, {"measurement": "QTc interval reduction from baseline", "setting": "[3]; 51 hours, no diuretic group, mean ± SD", "result": "26.2 ± 27.4", "unit": "ms"}, {"measurement": "QTc Baseline", "setting": "[3]; [9]", "result": "131200 ± 15000", "unit": "µM·h"}, {"measurement": "QTc Baseline", "setting": "[3]; baseline, before first dose, magnesium group n = 14, on sotalol or dofetilide, mean ± SD, listed as Magnesium", "result": "131200 ± 15000", "unit": "µM·h"}, {"measurement": "QT Interval Baseline", "setting": "[3]; [9]", "result": "119600 ± 10600", "unit": "µM·h"}, {"measurement": "RR Interval Baseline", "setting": "[3]; [9]", "result": "235600 ± 45530", "unit": "µM·h"}, {"measurement": "intracellular magnesium of patients with baseline concentrations below the normal reference range, after magnesium supplementation", "setting": "[4]; all such patients, normal reference range 33.9-41.9 mEq/IU", "result": "achieving a concentration within the normal reference range"}, {"measurement": "Intracellular magnesium concentration, Baseline", "setting": "[4]", "result": "32.6±2.2", "unit": "mEq/IU"}, {"measurement": "Intracellular magnesium concentration, Baseline", "setting": "[4]; listed as Magnesium", "result": "32.2 ± 2.2", "unit": "mEq/IU"}, {"measurement": "Intracellular magnesium concentration, Post-Dosing", "setting": "[4]", "result": "36.2±2.4", "unit": "mEq/IU"}, {"measurement": "Intracellular magnesium concentration, Post-Dosing", "setting": "[4]; listed as Magnesium", "result": "36.2 ± 2.4", "unit": "mEq/IU"}, {"measurement": "effective in repleting intracellular magnesium levels to normal ranges", "setting": "[4]; normal range defined as a minimum concentration of 33.9 mEq/IU", "result": 100, "unit": "%"}, {"measurement": "patients who experienced loose bowel movements", "setting": "[5]", "result": 2, "unit": "patients"}]}
{"compound": "[Cl-].[Cl-].[Mg+2]", "note": "[magnesium chloride]", "values": [{"measurement": "bioavailability", "setting": "[1]", "result": "about 20%"}]}
{"compound": "[Mg+2].[OH-].[OH-]", "note": "[magnesium hydroxide]", "values": [{"measurement": "maintaining sinus rhythm", "setting": "[6]", "result": "ineffective at maintaining sinus rhythm"}]}
{"compound": "magnesium gluconate", "values": [{"measurement": "bioavailability", "setting": "[1]", "result": "about 20%"}]}
